# Measurements published in article PMC3635830 (Biochemistry, 2013).
# Molecular target: tryptophan 2-monooxygenase (TMO) (Pseudomonas savastanoi, UniProt P06617)
# Assay: X-ray crystal structure, […] Å
# Settings: FAD-binding domain; IAM also bound
# Sequence of tryptophan 2-monooxygenase (TMO) (P06617 whole entry): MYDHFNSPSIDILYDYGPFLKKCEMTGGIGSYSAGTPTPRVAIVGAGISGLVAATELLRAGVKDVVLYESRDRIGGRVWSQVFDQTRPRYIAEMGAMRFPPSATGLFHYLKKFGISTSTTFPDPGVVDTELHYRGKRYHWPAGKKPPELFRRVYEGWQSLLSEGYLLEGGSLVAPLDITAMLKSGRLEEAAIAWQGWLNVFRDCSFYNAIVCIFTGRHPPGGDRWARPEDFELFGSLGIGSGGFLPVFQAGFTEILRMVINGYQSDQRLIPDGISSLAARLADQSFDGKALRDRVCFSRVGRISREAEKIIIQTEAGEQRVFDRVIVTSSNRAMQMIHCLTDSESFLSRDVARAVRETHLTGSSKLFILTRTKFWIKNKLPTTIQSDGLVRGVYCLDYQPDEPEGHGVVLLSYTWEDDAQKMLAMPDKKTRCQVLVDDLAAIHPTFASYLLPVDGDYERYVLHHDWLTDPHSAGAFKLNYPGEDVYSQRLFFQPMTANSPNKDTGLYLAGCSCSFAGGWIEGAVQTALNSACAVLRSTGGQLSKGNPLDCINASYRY
smiles,measurement,value
Cc1cc2nc3c(=O)[nH]c(=O)nc-3n(C[C@H](O)[C@H](O)[C@H](O)COP(=O)(O)OP(=O)(O)OC[C@H]3O[C@@H](n4cnc5c(N)ncnc54)[C@H](O)[C@@H]3O)c2cc1C [FAD],"X-ray crystal structure, 1.95 Å",The FAD cofactor and the bound indole-3-acetamide occupy a large internal cavity
